Test results as given in US12435090B2, “Compounds, pharmaceutical compositions, and methods of preparing compounds and of their use” (Repare Therapeutics Inc., priority 2021, dated 2025).

molecular target: recombinant human Myt1 (Homo sapiens (Human), UniProt Q99640); assay: Myt1 enzymatic assay (ADP-Glo kinase assay); format: biochemical; details: 18 nM enzyme, 10 uM ATP
Procedure: Detection of Myt1 kinase activity utilized a recombinant human Myt1 kinase assay measuring the hydrolysis of ATP using a commercially available ADP-Glo Assay (ADP-Glo™ Kinase Assay from Promega, 10 000 assays, #V9102). […] After this, 5 μL of compounds (diluted in reaction buffer to 0.5% DMSO) was added to the microplate and the plate was spun briefly and incubated at 22° C. for 15 minutes. Ultra-Pure Adenosine Triphosphate (ATP) solution (ADP-Glo kit from Promega) was diluted in reaction buffer and 5 μL was added to the microplate, spun down briefly and incubated for 60 minutes at 30° C. […] After the 60-minute incubation, 15 µL of ADP-Glo reagent was added and the plate was spun briefly and sealed and incubated in the dark for 40 minutes at 22° C. […] Luminescence was read using the Envision (250 ms integration). The IC50 and the % max inhibition were calculated for each inhibitor compound tested.

Sequence of recombinant human Myt1 (Q99640 whole entry): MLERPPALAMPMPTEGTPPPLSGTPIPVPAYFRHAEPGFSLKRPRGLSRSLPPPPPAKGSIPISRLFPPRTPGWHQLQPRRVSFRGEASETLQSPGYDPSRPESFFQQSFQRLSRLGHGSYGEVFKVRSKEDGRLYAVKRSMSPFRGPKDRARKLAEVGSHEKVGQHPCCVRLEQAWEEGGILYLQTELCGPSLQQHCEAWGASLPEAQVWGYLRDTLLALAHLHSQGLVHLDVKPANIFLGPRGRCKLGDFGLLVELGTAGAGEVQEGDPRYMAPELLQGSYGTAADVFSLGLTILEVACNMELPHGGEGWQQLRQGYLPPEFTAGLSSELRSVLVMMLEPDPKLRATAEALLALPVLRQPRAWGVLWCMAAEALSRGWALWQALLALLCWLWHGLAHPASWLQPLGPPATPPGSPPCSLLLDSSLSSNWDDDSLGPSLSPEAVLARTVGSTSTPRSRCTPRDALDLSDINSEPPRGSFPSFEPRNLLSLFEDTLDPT

**Q.** For `Cc1ccc(O)c(C)c1-n1c(N)c(C(N)=O)c2cc(C(C)(C)O)cnc21` [Compound 131], which IC50 is on record?
**A.** < 10 nM

**Q.** How did the IC50 turn out when `Cc1ncc(O)cc1-n1c(N)c(C(N)=O)c2nc(C)c(C)nc21` [Compound 262] was run?
**A.** 3230 nM

**Q.** With `Cc1ccc(O)c(C)c1-n1c(N)c(C(N)=O)c2nc(C3=CCC(C(=O)N(C)C)CC3)cnc21` (centres unmarked) [Compound 58] as the compound, how does the IC50 read?
**A.** < 10 nM

**Q.** How did the IC50 turn out when `Cc1c(O)ccc(Cl)c1-n1c(N)c(C(N)=O)c2nc(-c3nccs3)cnc21` [Compound 42] was run?
**A.** < 10 nM

**Q.** `Cc1ccc(O)c(C)c1-n1c(N)c(C(N)=O)c2nc(-c3cncs3)cnc21` [Compound 37] was tested. Which IC50 did it give?
**A.** < 10 nM

**Q.** With `Cc1ccc(O)c(C)c1-n1c(N)c(C(N)=O)c2nc(C(C)(C)F)cnc21` [Compound 178, 6-amino-2-(1-fluoro-1-methyl-ethyl)-5-(3-hydroxy-2,6-dimethyl-phenyl) pyrrolo[2,3-b]pyrazine-7-carboxamide] as the compound, how does the IC50 read?
**A.** < 10 nM

**Q.** With `Cc1ccc(O)c(C)c1-n1c(N)c(C(N)=O)c2nc(C3CCCCC3)cnc21` [Compound 83] as the compound, how does the IC50 read?
**A.** < 10 nM

**Q.** How did the IC50 turn out when `Cc1ccc(O)c(C)c1-n1c(N)c(C(N)=O)c2nc(-c3ccc(F)cn3)cnc21` [Compound 64] was run?
**A.** < 10 nM

**Q.** With `Cc1ccc(O)c(Cl)c1-n1c(N)c(C(N)=O)c2nc(C3CC3)cnc21` [Compound 104] as the compound, how does the IC50 read?
**A.** < 10 nM

**Q.** With `Cc1ccc(O)c(C)c1-n1c(N)c(C(N)=O)c2ncc(C#CCC3CCOCC3)nc21` [Compound 222] as the compound, how does the IC50 read?
**A.** < 10 nM

**Q.** `NC(=O)c1c(N)n(-c2cccc3[nH]ncc23)c2ncc(Cl)cc12` [Compound 334, 2-amino-5-chloro-1-(1H-indazol-4-yl)pyrrolo[2,3-b]pyridine-3-carboxamide] was tested. Which IC50 did it give?
**A.** 50 nM

**Q.** With `Cc1ccc(-c2cnc3c(n2)c(C(N)=O)c(N)n3-c2c(C)ccc(O)c2C)nc1` [Compound 61] as the compound, how does the IC50 read?
**A.** < 10 nM

**Q.** With `Cc1ccc(O)c(C)c1-n1c(N)c(C(N)=O)c2nc(-c3ccncn3)cnc21` [Compound 57] as the compound, how does the IC50 read?
**A.** < 10 nM

**Q.** For `Cc1ccc(O)c(C)c1-n1c(N)c(C(N)=O)c2nc(-c3nc(C)c(C)s3)cnc21` [Compound 32], which IC50 is on record?
**A.** < 10 nM

**Q.** For `Cc1ccc(O)c(C)c1-n1c(N)c(C(N)=O)c2nc(-c3nc4ccccc4s3)cnc21` [Compound 248], which IC50 is on record?
**A.** < 10 nM

**Q.** How did the IC50 turn out when `Cc1ccc(O)c(C)c1-n1c(N)c(C(N)=O)c2nc(-c3c[nH]cn3)cnc21` [Compound 65] was run?
**A.** < 10 nM

**Q.** Which IC50 does the source give for `Cc1ccc(O)c(C)c1-n1c(N)c(C(N)=O)c2cc(C(C)C)cnc21` [Compound 138] here?
**A.** < 10 nM

**Q.** Which IC50 does the source give for `Cc1ccc(O)c(C)c1-n1c(N)c(C(N)=O)c2cc(C3=CCOCC3)cnc21` [Compound 304] here?
**A.** < 10 nM

**Q.** `NC(=O)c1c(N)n(-c2cccc3[nH]ncc23)c2ncc(-c3ncc(F)cc3F)nc12` [Compound 333, 6-amino-2-(3,5-difluoro-2-pyridyl)-5-(1H-indazol-4-yl)pyrrolo[2,3-b]pyrazine-7-carboxamide] was tested. Which IC50 did it give?
**A.** 52 nM

**Q.** How did the IC50 turn out when `C=C(C)c1cnc2c(n1)c(C(N)=O)c(N)n2-c1c(C)ccc(O)c1C` [Compound 202] was run?
**A.** < 10 nM

**Q.** `CCCCc1cnc2c(n1)c(C(N)=O)c(N)n2-c1cccc2[nH]ncc12` [Compound 331] was tested. Which IC50 did it give?
**A.** 1320 nM

**Q.** For `CNC(=O)C1CCN(c2cnc3c(n2)c(C(N)=O)c(N)n3-c2c(C)ccc(O)c2C)CC1` [Compound 46, 6-amino-5-(3-hydroxy-2,6-dimethyl-phenyl)-2-[4-(methylcarbamoyl)-1-piperidyl]pyrrolo[2,3-b]pyrazine-7-carboxamide], which IC50 is on record?
**A.** < 10 nM

**Q.** Which IC50 does the source give for `Cc1ccc(O)c(C)c1-n1c(N)c(C(N)=O)c2nc(-c3ccccn3)cnc21` [Compound 34] here?
**A.** < 10 nM

**Q.** How did the IC50 turn out when `Cc1ccc(O)c(C)c1-n1c(N)c(C(N)=O)c2ncc(C#CC3(O)CCC(F)(F)CC3)nc21` [Compound 242, 6-amino-3-[2-(4,4-difluoro-1-hydroxy-cyclohexyl)ethynyl]-5-(3-hydroxy-2,6-dimethyl-phenyl) pyrrolo[2,3-b]pyrazine-7-carboxamide] was run?
**A.** < 10 nM

**Q.** Which IC50 does the source give for `C=Cc1cnc2c(n1)c(C(N)=O)c(N)n2-c1c(C)ccc(O)c1C` [Compound 259] here?
**A.** < 10 nM

**Q.** How did the IC50 turn out when `Cc1ccc(O)c(C)c1-n1c(N)c(C(N)=O)c2cc(S(=O)(=O)C3CC3)cnc21` [Compound 311] was run?
**A.** < 10 nM

**Q.** How did the IC50 turn out when `Cc1cnc(O)cc1-n1c(N)c(C(N)=O)c2nc(C)c(C)nc21` [Compound 169, 6-amino-5-(2-hydroxy-5-methyl-4-pyridyl)-2,3-dimethyl-pyrrolo[2,3-b]pyrazine-7-carboxamide] was run?
**A.** 1730 nM

**Q.** How did the IC50 turn out when `Cc1ccc(O)c(C)c1-n1c(N)c(C(N)=O)c2cc(Br)cnc21` [Compound 141] was run?
**A.** < 10 nM

**Q.** Which IC50 does the source give for `Cc1ccc(O)c(C)c1-n1c(N)c(C(N)=O)c2ncc(C#CC3(O)CCOCC3)nc21` [Compound 231] here?
**A.** < 10 nM

**Q.** `Cc1ccc(O)c(C)c1-n1c(N)c(C(N)=O)c2c(Cl)c(Cl)cnc21` [Compound 316] was tested. Which IC50 did it give?
**A.** < 10 nM

**Q.** For `Cc1ccc(O)c(C)c1-n1c(N)c(C(N)=O)c2cc(-c3nccs3)cnc21` [Compound 308], which IC50 is on record?
**A.** < 10 nM

**Q.** For `NC(=O)c1c(N)n(-c2cccc3[nH]ncc23)c2ncc(-c3nccs3)nc12` [Compound 332], which IC50 is on record?
**A.** 142 nM

**Q.** Which IC50 does the source give for `CCN(CC)c1cnc2c(n1)c(C(N)=O)c(N)n2-c1c(C)ccc(O)c1C` [Compound 88] here?
**A.** < 10 nM

**Q.** `Cc1ccc(O)c(C)c1-n1c(N)c(C(N)=O)c2nc(N3CCCCC3)cnc21` [Compound 81] was tested. Which IC50 did it give?
**A.** < 10 nM

**Q.** With `Cc1ccc(O)c(C)c1-n1c(N)c(C(N)=O)c2nc(C(N)=O)cnc21` [Compound 220, 6-amino-5-(3-hydroxy-2,6-dimethyl-phenyl) pyrrolo[2,3-b]pyrazine-2,7-dicarboxamide] as the compound, how does the IC50 read?
**A.** < 10 nM

**Q.** `Cc1ccc(O)c(C)c1-n1cc(C(N)=O)c2cc(C3CC3)cnc21` [Compound 143] was tested. Which IC50 did it give?
**A.** < 10 nM

**Q.** `Cc1ccc2[nH]ncc2c1-n1c(N)c(C(N)=O)c2cc(Cl)cnc21` [Compound 335] was tested. Which IC50 did it give?
**A.** 40 nM

**Q.** With `Cc1ccc(O)c(C)c1-n1c(N)c(C(N)=O)c2cc(Br)c(C)nc21` [Compound 187] as the compound, how does the IC50 read?
**A.** < 10 nM

**Q.** `Cc1ccc(O)c(C)c1-n1c(N)c(C(N)=O)c2cc(I)cnc21` [Compound 319] was tested. Which IC50 did it give?
**A.** < 10 nM

**Q.** `Cc1ccc(O)c(C)c1-n1c(N)c(C(N)=O)c2nc(-c3ccnnc3)cnc21` [Compound 250] was tested. Which IC50 did it give?
**A.** < 10 nM

**Q.** How did the IC50 turn out when `Cc1ccc(O)c(C)c1-n1c(N)c(C(N)=O)c2nc(-c3ccnc(C(F)(F)F)c3)cnc21` [Compound 35, 6-amino-5-(3-hydroxy-2,6-dimethyl-phenyl)-2-[2-(trifluoromethyl)-4-pyridyl]pyrrolo[2,3-b]pyrazine-7-carboxamide] was run?
**A.** < 10 nM

**Q.** `Cc1ccc(O)c(C)c1-n1c(N)c(C(N)=O)c2nc(-c3ccns3)cnc21` [Compound 41] was tested. Which IC50 did it give?
**A.** < 10 nM

**Q.** How did the IC50 turn out when `Cc1nc2c(C(N)=O)c(N)n(-c3c(Cl)ccc(O)c3C)c2nc1C` [Compound 168] was run?
**A.** < 10 nM

**Q.** Which IC50 does the source give for `Cc1cc2c(-c3c(C)ccc(O)c3C)c(N)c(C(N)=O)n2cc1C` [Compound 338, 2-amino-1-(3-hydroxy-2,6-dimethylphenyl)-6,7-dimethylindolizine-3-carboxamide] here?
**A.** 108 nM

**Q.** `Cc1ccc(O)c(C)c1-n1c(N)c(C(N)=O)c2nc(N3CCCC3)cnc21` [Compound 85] was tested. Which IC50 did it give?
**A.** < 10 nM

**Q.** How did the IC50 turn out when `Cc1ccc(O)c(C)c1-n1c(N)c(C(N)=O)c2cccnc21` [Compound 328] was run?
**A.** < 10 nM

**Q.** Which IC50 does the source give for `Cc1ccc(O)cc1-c1cn(C(N)=O)c2cc(Cl)cnc12` [Compound 345, 6-chloro-3-(5-hydroxy-2-methyl-phenyl) pyrrolo[3,2-b]pyridine-1-carboxamide] here?
**A.** 323 nM

**Q.** Which IC50 does the source give for `Cc1cn2c(C(N)=O)c(N)c(-c3c(C)ccc(O)c3C)c2nc1C` [Compound 337, 7-amino-8-(3-hydroxy-2,6-dimethylphenyl)-2,3-dimethylpyrrolo[1,2-a]pyrimidine-6-carboxamide] here?
**A.** < 10 nM

**Q.** Which IC50 does the source give for `Cc1ccc(O)c(C)c1-n1c(N)c(C(N)=O)c2cc(C#N)cnc21` [Compound 312] here?
**A.** < 10 nM

**Q.** `NC(=O)c1c(N)n(-c2cccc3[nH]ncc23)c2ncc(C3CC3)nc12` [Compound 330, 6-amino-2-cyclopropyl-5-(1H-indazol-4-yl)pyrrolo[2,3-b]pyrazine-7-carboxamide] was tested. Which IC50 did it give?
**A.** 106 nM

**Q.** Which IC50 does the source give for `Cc1ccc(O)c(C)c1-n1c(N)c(C(N)=O)c2cc(-c3ccccn3)cnc21` [Compound 295] here?
**A.** < 10 nM

**Q.** With `Cc1ccc(O)c(C)c1-n1c(N)c(C(N)=O)c2nc(-c3cnccn3)cnc21` [Compound 38] as the compound, how does the IC50 read?
**A.** < 10 nM

**Q.** Which IC50 does the source give for `Cc1ccc(O)c(C)c1-n1c(N)c(C(N)=O)c2c(C)c(Cl)cnc21` [Compound 313] here?
**A.** < 10 nM

**Q.** `Cc1ccc(O)c(C)c1-n1c(N)c(C(N)=O)c2nc(N3CCC(C(=O)N(C)C)CC3)cnc21` [Compound 80] was tested. Which IC50 did it give?
**A.** < 10 nM

**Q.** How did the IC50 turn out when `Cc1ccc2[nH]ncc2c1-n1c(N)c(C(N)=O)c2nccnc21` [Compound 329] was run?
**A.** 1320 nM

**Q.** For `Cc1ccc(O)c(C)c1-n1c(N)c(C(N)=O)c2nc(C3(C(F)(F)F)CC3)cnc21` [Compound 198, 6-amino-5-(3-hydroxy-2,6-dimethyl-phenyl)-2-[1-(trifluoromethyl)cyclopropyl]pyrrolo[2,3-b]pyrazine-7-carboxamide], which IC50 is on record?
**A.** < 10 nM

**Q.** `Cc1ccc(O)c(Cl)c1-n1c(N)c(C(N)=O)c2cc(Cl)cnc21` [Compound 327] was tested. Which IC50 did it give?
**A.** < 10 nM

**Q.** How did the IC50 turn out when `Cc1ccc(O)c(C)c1-n1cc(C(N)=O)c2cc(Cl)ccc21` [Compound 346, 5-chloro-1-(3-hydroxy-2,6-dimethylphenyl)-1H-indole-3-carboxamide] was run?
**A.** 234 nM

**Q.** Which IC50 does the source give for `Cc1ccc2c(C(N)=O)c(N)n(-c3c(C)ccc(O)c3C)c2n1` [Compound 193] here?
**A.** < 10 nM

**Q.** With `Cc1ccc(O)c(C)c1-n1c(N)c(C(N)=O)c2nc(-c3nccs3)c(C)nc21` [Compound 31, 6-amino-5-(3-hydroxy-2,6-dimethyl-phenyl)-3-methyl-2-thiazol-2-yl-pyrrolo[2,3-b]pyrazine-7-carboxamide] as the compound, how does the IC50 read?
**A.** < 10 nM

**Q.** With `Cc1ccc(O)c(C)c1-n1c(N)c(C(N)=O)c2nc(C3=CCCCC3)cnc21` [Compound 86] as the compound, how does the IC50 read?
**A.** < 10 nM

**Q.** With `Cc1ccc(O)c(C)c1-n1c(N)c(C(N)=O)c2nc(N3CC4CCC(C3)O4)cnc21` [Compound 92] as the compound, how does the IC50 read?
**A.** < 10 nM
